Data as given in patent US7052859B2, “MUCIN 4 expression as a marker for pancreatic cancer” (The Board of Regents of the University of Nebraska, priority 2000, dated 2006).
Ends that are not written are not given here.

Key:
[1] = system: MUC4 peptides; assay: Immunogenicity of KLH-conjugated MUC4 peptides in rabbits (serum antibody titre); type: in vivo, rabbit; details: ten weeks after immunization with KLH-conjugated peptide
Description: The present invention also provides antibodies capable of immunospecifically binding to MUC4. Polyclonal antibodies directed toward human MUC4 protein may be prepared according to standard methods. In a preferred embodiment, monoclonal antibodies are prepared, which react immunospecifically with the various epitopes of the MUC4 protein. Monoclonal antibodies have been prepared according to general methods of Kohler and Milstein, following standard protocols.

[2] = system: MUC4 mRNA expression in PBMC; assay: MUC4 mRNA expression (RT-PCR) in PBMC from healthy volunteers after incubation with cytokines, growth factors or mitogens; type: cell-based, human; details: incubated 24 and 48 hours, serum free, retinoic acid 100 nM, 1 μM, TGF-β2 10, 20 and 200 pg/ml
Description: Freshly prepared PBMC (10×10^6 cells) from healthy volunteers were stimulated with PHA (10 μg/ml) and LPS (20 μg/ml, all from Sigma) for 12 and 24 hours. To study the effect of different cytokines and growth factors on the MUC4 mRNA expression, 10 million PBMC were incubated with TGF-β1 (10; 20 and 200 pg/ml), TGF-β2 (10; 20 and 200 pg/ml) (all from R&D systems, Minneapolis, Minn.), retinoic acid (RA) (100 nM; 1 μM) (Sigma), GM-CSF (100 U/ml) (Immunex Corp. Seattle, Wash.), IL-1β (10 ng/ml), IL-6 (10 ng/ml), IL-9 (50 ng/ml), IFNγ (10 and 20 ng/ml), TNFα (10 and 50 ng/ml) or with IFNγ (10 and 20 ng/ml) in combination with TNFα (10 and 50 ng/ml) (all from PeproTech Inc., Rocky Hill, N.J.) for 24 and 48 hours under serum free conditions.
The single step RNA isolation method was used for RNA preparation as previously described (28,29). In brief, cells were homogenized in a denaturing solution containing 4 M guanidine thiocyanate. The homogenate was mixed sequentially with 2 M sodium acetate (pH 4), phenol and chloroform/isoamyl alcohol. […] The RNA pellet was then resuspended in diethyl pyrocarbonate (DEPC)-treated water, and the final RNA concentration was determined spectrophotometrically by measuring the absorbance at 260 nm and 280 nm (DU 640B, Beckman Coulter, Fullstone Calif.). […]

[3] = system: MUC4 expression in pancreatic cancer cells; details: previous work (31); cited from earlier work

Row | Molecule | antibody titre of rabbit sera reacting specifically with the peptide [1] | induction of MUC4 mRNA expression in PBMC [2] | MUC4 expression after treatment [3]
1 | ATYRPPQPAWMFGD (also: KLH conjugate; listed as Homo sapiens) [MUC4 α, MUC4 peptide synthesized and conjugated to the KLH protein as an immunogen] | 47,338 units | – | –
2 | GARFSYFLNSAEALP (also: KLH conjugate; listed as Homo sapiens) [MUC4 β, MUC4 peptide synthesized and conjugated to the KLH protein as an immunogen] | 31,108 units | – | –
3 | TGF-β2: growth factor from R&D systems; produced and secreted by pancreatic cancer cell lines (protein, UniProt P61812 303-414, looked up) Transforming growth factor …: ALDAAYCFRNVQDNCCLRPLYIDFKRDLGWKWIHEPKGYNANFCAGACPYLWSSDTQHSRVLSLYNTINPEASASPCCVSQDLEPLTILYYIGKTPKIEQLSNMIVKSCKCS | – | neither incubation with retinoic acid and TGF-β2 nor the activation of T-cells and B-cells with PHA and LPS or incubation with various other cytokines induced MUC4 mRNA expression | resulted in MUC4 expression
